{"source": "patent US5583144A", "about": "“Methods for treating erectile impotence” (priority 1995, dated 1996)", "key": {"erectile dysfunction": {"tested_on": "erectile dysfunction", "conditions": "cited from earlier work; for priapism or extremely long erections following treatment for erectile dysfunction: men treated for erectile dysfunction, literature; for duration of action / erections: agents used to treat impotence, causing pain and general discomfort"}, "[1]": {"tested_on": "vascular alpha-adrenergic receptors", "conditions": "epinephrine 1.0 ug/kg iv; all rats tested", "experimental": "(§1) Eight male normotensive Sprague-Dawley rats weighing between 350 to 380 grams were used in these studies. Animals were fed and watered ad libitum in a temperature (22 degrees and humidity (50%) controlled vivarium with a light dark cycle of 12 hours.\nEpinephrine, D,L-piperoxan, and phentolamine (Sigma Chemical Company; St. Louis, Mo.) were solubilized in 0.9% saline on the day of the experiment. All doses were calculated on free base weight. The rats were anesthetized with pentobarbital sodium 60 mg/kg i.p. All animals were checked for depth of anesthesia before proceeding further using the corneal reflex and toe pinch response as indicators. The ventral surface of the neck was shaven and a longitudinal incision, approximately 2 cm long, was made on the ventral surface. The trachea was isolated and intubated (PE205; Intramedic, Parsippany, N.J.) . The left internal jugular vein and right common carotid artery were cannulated (PE50; Clay Adams, Becton Dickinson, Parsippany, N.J.). […] This response was quantified by measurement of the arterial blood pressure waveform. […] Arterial blood pressure was measured continuously during the length of the experiments.\nPercent inhibition of the epinephrine-induced pressor effect by both phentolamine and piperoxan was used as a measure of inhibition of the alpha-adrenergic receptor. […] Percent inhibition was calculated by the following formula: [formula]"}, "[2]": {"tested_on": "alpha-adrenergic receptor", "test": "Inhibition of epinephrine-induced pressor response (arterial blood pressure) in pentobarbital anesthetized rats", "assay_type": "in vivo, Sprague-Dawley rats", "conditions": "for estimated pharmacologic half-life on alpha-adrenergic receptor antagonism: epinephrine 1.0 ug/kg iv challenge, pentobarbital anesthetized rats; for alpha-adrenergic antagonism in vivo: inhibition of the pressor effect of epinephrine challenge; for duration of action relative to that of phentolamine: 0.25 mg/kg iv each, four rats per treatment, alpha-adrenergic antagonism / duration of vasodilation (FIG. 1)", "experimental": "as §1\nEpinephrine, D,L-piperoxan, and phentolamine (Sigma Chemical Company; St. Louis, Mo.) were solubilized in 0.9% saline on the day of the experiment. All doses were calculated on free base weight. The rats were anesthetized with pentobarbital sodium 60 mg/kg i.p. All animals were checked for depth of anesthesia before proceeding further using the corneal reflex and toe pinch response as indicators. The ventral surface of the neck was shaven and a longitudinal incision, approximately 2 cm long, was made on the ventral surface. The trachea was isolated and intubated (PE205; Intramedic, Parsippany, N.J.) . The left internal jugular vein and right common carotid artery were cannulated (PE50; Clay Adams, Becton Dickinson, Parsippany, N.J.). The cannulas were heparinized (Sodium heparin 60 units/ml) and inserted approximately 1.5 cm into the vessels and were secured with 4-0 silk suture. The animal was placed in the supine position, and body temperature was maintained via a heat lamp. A short piece of hypodermic tubing was inserted into the venous and arterial cannulas, and each cannula connected to a three way stopcock via a section of PE50 and 23 gauge Luer stub. The jugular line was used for administration of epinephrine and either piperoxan or phentolamine. In order to directly record arterial blood pressure, the carotid arterial line was connected to an electronic blood pressure transducer (P23db; Gould Electronics, Oxnard, Calif.). The blood pressure transducer was connected to a Gould transducer amplifier and a thermal recorder for the purpose of recording the arterial blood pressure waveform. After a stable blood pressure baseline was obtained, epinephrine was injected intravenously at a dose of 1.0 ug/kg for the purpose of inducing an alpha-adrenergic receptor mediated pressor response. This response was quantified by measurement of the arterial blood pressure waveform. After the epinephrine-induced pressor effect returned to baseline, either phentolamine or piperoxan was administered intravenously at a dose of 0.25 mg/kg. After dosing with piperoxan and phentolamine, epinephrine injections were repeated at 5, 10, 15, 20, 30, 40, 50, and 60 minutes post dosing. Arterial blood pressure was measured continuously during the length of the experiments.\nPercent inhibition of the epinephrine-induced pressor effect by both phentolamine and piperoxan was used as a measure of inhibition of the alpha-adrenergic receptor. As stated previously, inhibition of the alpha receptor results in vasodilatation. Percent inhibition was calculated by the following formula: [formula]"}, "[3]": {"conditions": "in water and acid solutions; cited from earlier work"}, "[4]": {"conditions": "cited from earlier work"}}, "note": "“Also recorded” adds a separate entry of the source."}
{"smiles": "CC(COc1ccccc1)N(CCCl)Cc1ccccc1", "note": "(stereo not shown) [phenoxybenzamine]", "values": [{"measurement": "priapism or extremely long erections following treatment for erectile dysfunction", "setting": "erectile dysfunction", "value": "priapism or extremely long erections"}]}
{"smiles": "COC(=O)[C@@H]1[C@H]2C[C@H]3c4[nH]c5ccccc5c4CCN3C[C@@H]2CC[C@@H]1O", "note": "[yohimbine]", "values": [{"measurement": "duration of action / erections", "setting": "erectile dysfunction", "value": "extremely long duration of action, resulting in erections which last several hours"}]}
{"smiles": "O=c1n(CCCN2CCN(c3cccc(Cl)c3)CC2)nc2ccccn12", "note": "[trazodone]", "values": [{"measurement": "priapism or extremely long erections following treatment for erectile dysfunction", "setting": "erectile dysfunction", "value": "priapism or extremely long erections"}]}
{"smiles": "CNC[C@H](O)c1ccc(O)c(O)c1", "note": "[epinephrine]", "values": [{"measurement": "arterial blood pressure change", "setting": "[1]", "value": "marked increase in arterial blood pressure in all rats tested"}]}
{"smiles": "Cc1ccc(N(CC2=NCCN2)c2cccc(O)c2)cc1", "note": "[phentolamine]", "values": [{"measurement": "duration of action / erections", "setting": "erectile dysfunction", "value": "extremely long duration of action, resulting in erections which last several hours"}, {"measurement": "priapism or extremely long erections following treatment for erectile dysfunction", "setting": "erectile dysfunction", "value": "priapism or extremely long erections"}, {"measurement": "estimated pharmacologic half-life on alpha-adrenergic receptor antagonism", "setting": "[2]; 0.25 mg/kg iv", "value": "greater than 60 minutes"}, {"measurement": "alpha-adrenergic antagonism in vivo", "setting": "[2]; 0.25 mg/kg iv", "value": "inhibitory to the pressor-induced effect of epinephrine challenge"}]}
{"smiles": "COc1ccc(Cc2nccc3cc(OC)c(OC)cc23)cc1OC", "note": "[papaverine]", "values": [{"measurement": "priapism or extremely long erections following treatment for erectile dysfunction", "setting": "erectile dysfunction", "value": "priapism or extremely long erections"}]}
{"smiles": "c1ccc2c(c1)OCC(CN1CCCCC1)O2", "note": "(racemic) [piperoxan]", "values": [{"measurement": "solubility", "setting": "[3]", "value": "freely soluble"}, {"measurement": "duration of action relative to that of phentolamine", "setting": "[2]", "value": "approximately one-half"}, {"measurement": "duration of action relative to that of phentolamine", "setting": "[2]; listed as Piperoxan", "value": "approximately half"}, {"measurement": "biological half-life / duration of action compared with phentolamine", "setting": "[2]; 0.25 mg/kg iv, FIG. 1", "value": "much shorter biological half-life; also recorded: shorter duration of action than phentolamine"}, {"measurement": "estimated pharmacologic half-life on alpha-adrenergic receptor antagonism", "setting": "[2]; 0.25 mg/kg iv", "value": "approximately 30 minutes"}, {"measurement": "alpha-adrenergic antagonism in vivo", "setting": "[2]; 0.25 mg/kg iv", "value": "inhibitory to the pressor-induced effect of epinephrine challenge; also recorded: alpha-adrenergic antagonist in vivo"}, {"measurement": "storage stability of aqueous solution", "setting": "[4]; aqueous solution at pH 5.0, room temperature", "value": "many months of storage at room temperature"}, {"measurement": "stability of aqueous solution to autoclaving", "setting": "[4]; aqueous solution at pH 5.0", "value": "stable to autoclaving"}, {"measurement": "hygroscopicity of crystals", "setting": "[4]; crystals", "value": "not hygroscopic"}, {"measurement": "stability of crystals", "setting": "[4]; crystals, light, air, normal storage temperatures", "value": "stable to light, air, and normal storage temperatures"}]}
